In patent US5876746A, “Transdermal patch and method for administering 17-deacetyl norgestimate alone or in combination with an estrogen” (Cygnus, Inc., priority 1996, dated 1999):
Read-outs that look alike come from different tables or passages of the source.

Method: Mixtures of Duro-Tak 87-2287, 0.26% aluminum acetylacetonate crosslinker, 6% 17-d-Ngm, 1% EE, and various permeation enhancers were prepared. These mixtures were cured and cast as a 100 micron thick (wet) layer onto a 3M 1022 polyester backing and dried. Skin flux tests were carried out on the resulting assemblies according to the procedure described in col. […] HPLC was used to assay for 17-d-Ngm and EE. A Perkin Elmer HPLC system with Diedoarray detector set at 245 nm and 215 nm for 17-d-Ngm and EE, respectively. The mobile phase was 55% water, 45% acetonitrile at a flow rate of 1.0 ml/min. Retention time was 4.5 and 3.0 min. for 17-d-Ngm and EE, respectively.
It was mixed with 17-d-Ngm, EE, 7% PVP (K30 from BASF; dissolved in n-propanol) and various enhancers. These mixtures were cast as a 100 micron thick (wet) layer onto a 3M 1022 polyester backing and dried. Skin flux tests were carried out on the resulting assemblies as in Example 1.
PIB solutions were prepared by dissolving VISTANEX L100, Vistanex LM-MS-LC, and polybutene (Indopol H1900) in hexane. Suspensions of PVP-CLM, 17-d-Ngm, EE and various enhancers in ethanol/ethyl acetate were prepared. The PIB solution was added to the drug suspensions and the resulting mixtures were thoroughly blended. The mixtures were cast as a 10 mil thick (wet) layer onto release liners and dried at 70° C. for 40 min. Saranex 2015 backing was laminated to the subassembly. Skin flux studies were carried out on these assemblies as in Example 1.

C[C@]12CC[C@@H]3c4ccc(O)cc4CC[C@H]3[C@@H]1CC[C@@H]2O [17β-estradiol]
Flux (Table 5: 2% 17β-estradiol, 2% 17-deacetynorgetimate, 20% PVP-CLM, 76% PIB adhesive): 0.20 μg/cm^2 /hr

C#C[C@]1(O)CC[C@H]2[C@@H]3CCc4cc(O)ccc4[C@H]3CC[C@@]21C [EE, ethinyl estradiol]
Flux (Table 1: 2% TG + 4% OL, Duro-Tak 87-2287, 6% 17-d-Ngm, 1% EE): 0.061 ± 0.007 μg/cm^2 /hr | Flux (Table 1: 2% TG + 10% ML, Duro-Tak 87-2287, 6% 17-d-Ngm, 1% EE): 0.076 ± 0.005 μg/cm^2 /hr | Flux (Table 1: 2% TG + 10% PGML, Duro-Tak 87-2287, 6% 17-d-Ngm, 1% EE): 0.057 ± 0.009 μg/cm^2 /hr | Flux (Table 1: 3% TG, Duro-Tak 87-2287, 6% 17-d-Ngm, 1% EE): 0.043 ± 0.011 μg/cm^2 /hr | Flux (Table 1: 4% TG + 15% ML, Duro-Tak 87-2287, 6% 17-d-Ngm, 1% EE): 0.072 ± 0.002 μg/cm^2 /hr | Flux (Table 2: silicone 4202, 7% PVP, 2% 17-d-Ngm, 0.5% EE, 2% TG + 2% ML): 0.18 ± 0.02 μg/cm^2 /hr | Flux (Table 2: silicone 4202, 7% PVP, 4% 17-d-Ngm, 0.5% EE, 2% ML): 0.074 ± 0.008 μg/cm^2 /hr | Flux (Table 2: silicone 4202, 7% PVP, 4% 17-d-Ngm, 0.5% EE, 5% ML + 1% TG): 0.069 ± 0.007 μg/cm^2 /hr | Flux (Table 2: silicone 4202, 7% PVP, 6% 17-d-Ngm, 0.5% EE, 5% ML + 1% TG): 0.043 ± 0.004 μg/cm^2 /hr | Flux (Table 2: silicone 4202, 7% PVP, 6% 17-d-Ngm, 0.5% EE, 14% (TC:PGML; 80:20)): 0.062 ± 0.01 μg/cm^2 /hr | Flux (Table 2: silicone 4202, 7% PVP, 6% 17-d-Ngm, 0.5% EE, 14% PGML): 0.070 ± 0.01 μg/cm^2 /hr | Flux (Table 2: silicone 4202, 14% PVP, 4% 17-d-Ngm, 0.5% EE, 4% TG + 5% ML): 0.078 ± 0.01 μg/cm^2 /hr | Flux (Table 3: 0.1% EE, 1% 17-d-Ngm, 5% ML, 7% PVP-CLM, 86.9% silicone): 0.05 ± 0.002 μg/cm^2 /hr | Flux (Table 3: 0.1% EE, 1% 17-d-Ngm, 5% ML, 7% PVP-K30, 86.9% silicone): 0.04 ± 0.008 μg/cm^2 /hr | Flux (Table 4: PIB 1:5:4, 0.2% EE, 1.0% 17-d-Ngm, 20% PVP-CLM, 5% AMWAT): 0.05 ± 0.004 μg/cm^2 /hr | Flux (Table 4: PIB 1:5:4, 0.2% EE, 2.0% 17-d-Ngm, 20% PVP-CLM, 3% oleic acid): 0.06 ± 0.002 μg/cm^2 /hr | Flux (Table 4: PIB 1:5:4, 0.2% EE, 2.0% 17-d-Ngm, 20% PVP-CLM, 5% lauramide diethanoiamine): 0.06 ± 0.001 μg/cm^2 /hr | Flux (Table 4: PIB 1:5:4, 0.2% EE, 2.0% 17-d-Ngm, 20% PVP-CLM, 10% PGML): 0.09 ± 0.001 μg/cm^2 /hr | Flux (Table 4: PIB 1:5:4, 0.2% EE, 2.0% 17-d-Ngm, 20% PVP-CLM, 10/0.5% PGML/oleic acid): 0.10 ± 0.001 μg/cm^2 /hr | Flux (Table 4: PIB 1:5:4, 0.2% EE, 3.0% 17-d-Ngm, 20% PVP-CLM, 3% oleic acid): 0.04 ± 0.002 μg/cm^2 /hr | Flux (Table 4: PIB 1:5:4, 0.2% EE, 3.0% 17-d-Ngm, 20% PVP-CLM, 10% PGML): 0.07 ± 0.001 μg/cm^2 /hr | Flux (Table 4: PIB 1:5:4, 0.2% EE, 4.0% 17-d-Ngm, 20% PVP-CLM, 5% lauric acid N,N-dimethyl amide): 0.04 ± 0.001 μg/cm^2 /hr | Flux (Table 4: PIB 1:5:4, 0.3% EE, 4.0% 17-d-Ngm, 20% PVP-CLM, 8% PGIS): 0.10 ± 0.001 μg/cm^2 /hr | Flux (Table 4: PIB 1:5:4, 0.3% EE, 4.0% 17-d-Ngm, 20% PVP-CLM, 8/3% PGML/oleic acid): 0.14 ± 0.001 μg/cm^2 /hr | Flux (Table 4: PIB 1:5:4, 0.3% EE, 4.0% 17-d-Ngm, 20% PVP-CLM, 15% dibutylsebacate): 0.06 ± 0.005 μg/cm^2 /hr | Flux (Table 4: PIB 1:5:4, 0.3% EE, 4.0% 17-d-Ngm, 20% PVP-CLM, 15% ethyl oleate): 0.10 ± 0.001 μg/cm^2 /hr | Flux (Table 4: PIB 1:5:4, 0.3% EE, 4.0% 17-d-Ngm, 20% PVP-CLM, 15% isopropyl palmitate): 0.07 ± 0.001 μg/cm^2 /hr | Flux (Table 4: PIB 2:4:4, 0.3% EE, 4.0% 17-d-Ngm, 20% PVP-CLM, 20% propyl laurate): 0.06 ± 0.002 μg/cm^2 /hr | Flux (Table 6: 70.8% PIB, 20% PVP-CLM, 0.2% EE, 2% 71-d-Ngm, 7% lauryl lactate, skin permeability Low): 0.03 μg/cm^2 /hr | Flux (Table 6: 70.8% PIB, 20% PVP-CLM, 0.2% EE, 2% 71-d-Ngm, 7% lauryl lactate, skin permeability Medium): 0.08 μg/cm^2 /hr | Flux (Table 6: 72.8% PIB, 20% PVP-CLM, 0.2 EE, 2% 17-d-Ngm, 5% myristyl lactate, skin permeability not given): 0.09 μg/cm^2 /hr | Flux (Table 6: 72.85% PIB, 20% PVP-CLM, 0.15% EE, 5% lauryl lactate, skin permeability High): 0.08 μg/cm^2 /hr | Flux (Table 6: 72.85% PIB, 20% PVP-CLM, 0.15% EE, 5% lauryl lactate, skin permeability Low): 0.02 μg/cm^2 /hr | Flux (Table 6: 72.85% PIB, 20% PVP-CLM, 0.15% EE, 5% lauryl lactate, skin permeability Medium): 0.05 μg/cm^2 /hr
